Where two headings read alike, the source gives them in different places.
Experiments:
COX-2 = conditions: cited from earlier work
MCF7 = conditions: Figure 2; cited from earlier work
MCF7 cells [1] = assay: MTT antiproliferative activity assay, MCF7; assay type: cell-based; conditions: for IC50: Homo sapiens, MCF7, MTT, 72 h, mean ± S.D. (n = 3); for Selectivity Index MCF7: IC50 against MRC5 divided by IC50 against MCF7
Experimental: (§1) The antiproliferative activities of the eight Schiff bases 16a–h against three cancer cell lines (MCF-7, A2780, and HT29) were evaluated using the MTT assay. The selection of these cell lines was done to compare the antiproliferative activities of the new compounds with those of compound 10 [20]. The assay was performed following the previous report.
(§2) In the current study, the three cancer cell lines (MCF7, A2780, and HT29) used were obtained from the ATCC. The cell lines were cultured following our previous report. On the other hand, the normal MRC5 cells used in the current study were maintained in Eagle’s minimum essential medium following the previous report.
(§3) The antiproliferative activity was measured using the MTT assay according to the previous report. Briefly, the cancer/normal cell lines were cultured in 96-well (3 × 10^3/well) separately. The cells were treated by tested compounds 16a–h in final concentrations of 0, 0.1, 1, 10, 25, and 50 μM and incubated at 37 °C for 72 h. The MTT was added and the antiproliferative activities (IC50 values) of the new compounds were calculated.

HT29 cells [2] = assay: MTT antiproliferative activity assay, HT29; assay type: cell-based; conditions: for IC50: Homo sapiens, HT-29, MTT, 72 h, mean ± S.D. (n = 3); for Selectivity Index HT29: IC50 against MRC5 divided by IC50 against HT29
Experimental: as §1, §2, §3

A2780 cells [3] = assay: MTT antiproliferative activity assay, A2780; assay type: cell-based; conditions: for IC50: Homo sapiens, A2780, MTT, 72 h, mean ± S.D. (n = 3); for Selectivity Index A2780: IC50 against MRC5 divided by IC50 against A2780
Experimental: as §1, §2, §3

[4] = MTT assay against normal MRC5 cells; assay type: cell-based; conditions: human, 72 h treatment, mean ± SD (n = 3)
Experimental: Selectivity of the antiproliferative agents toward cancer cells plays a critical role in the development of these agents as potential anticancer drugs. […] In the current study, all of the new compounds 16a–h were evaluated for the antiproliferative activities against the normal MRC5 cells. […] The aim of this study was to assess the toxicity of the new compounds against normal MRC5 cells. In addition, the IC50 values were also used to calculate the selectivity index (SI) which measures the selective cytotoxicity of the new compounds.
as §2, §3

A549 cells = conditions: cited from earlier work
[5] = test system: MCF7, A2780 and HT29 cancer cell lines; assay: MTT antiproliferative activity assay, three cancer cell lines together; assay type: cell-based; conditions: for Selectivity index range toward the three cancer cell lines: MCF7, A2780, HT29 compared to MRC5 cells; for IC50: MCF7, A2780 and HT29, MTT, 72 h, read-out: IC50 range against the three cancer cell lines
Experimental: as §1, §2, §3

MCF7 cells [6] = test system: MCF7 cells; design: method as in PMID 31259695; conditions: quoted from previous publication; cited from earlier work
HT29 cells [7] = test system: HT29 cells; design: method as in PMID 31259695; conditions: quoted from previous publication; cited from earlier work
[8] = test system: MCF7, A2780 and HT29 cancer cell lines; design: method as in PMID 31259695; conditions: read-out: IC50 range against the three cancer cell lines; cited from earlier work
A2780 cells [9] = test system: A2780 cells; design: method as in PMID 31259695; conditions: quoted from previous publication; cited from earlier work
COX-1 = test system: COX-1; design: method as in PMID 26994693; conditions: Figure 2; cited from earlier work
5-LOX = test system: 5-LOX; design: method as in PMID 26994693; conditions: Figure 2; cited from earlier work
MCF7 cells [10] = assay: Cell cycle analysis by flow cytometry; assay type: cell-based; conditions: MCF7 cells, 0.01, 0.05, 0.10 μM, 72 h
Experimental: Cell cycle analysis of MCF7 cells was also performed to investigate the mechanism which mediates the antiproliferative activity of the new compounds. […] The assay was performed according to the previous report. The results are represented in Figure 11.
The effect of compound 16g on the cell cycle distribution of MCF7 was performed following the previous report. Briefly, the cancer cells were cultured for 72 h with 0.00, 0.01, 0.05, and 0.10 μM final concentration of compound 16g. Next, the cells were washed with PBS x1 and trypsinized. The collected cells were spinned and fixed with 70% ethanol. Ribonuclease A was added (15 min) after suspending the cells in cold PBS x1. Following the addition of propidium iodide, analysis of the ice-cold cells was done by flow cytometry (BC, FC500, Brea, CA, USA).

[11] = Figure 2, read-out: IC50 (COX-2)

melting point | IC50 (MCF7 cells [1]) | IC50 (HT29 cells [2]) | IC50 (A2780 cells [3]) | IC50 at 72 h [4] | Compound | Selectivity Index MCF7 (MCF7 cells [1]) | Selectivity Index HT29 (HT29 cells [2]) | Selectivity Index A2780 (A2780 cells [3]) | further results
239 to 241 °C | 150 ± 20 nM | 340 ± 30 nM | 1400 ± 210 nM | 2770 ± 90 nM | COc1ccc(NC(=O)c2c(N=Cc3ccc(F)cc3)c(C#N)c3n2CCC3)cc1 [Compound 16e, 7-Cyano-6-((4-fluorobenzylidene)amino)-N-(4-methoxyphenyl)-2,3-dihydro-1H-pyrrolizine-5-carboxamide] | 18.47 | 8.15 | 1.98 | –
253 to 255 °C | 40400 ± 7700 nM | 210 ± 120 nM | 490 ± 120 nM | 1340 ± 450 nM | N#Cc1c(N=Cc2ccc(F)cc2)c(C(=O)Nc2ccc(F)cc2)n2c1CCC2 [Compound 16f, 7-Cyano-6-((4-fluorobenzylidene)amino)-N-(4-fluorophenyl)-2,3-dihydro-1H-pyrrolizine-5-carboxamide] | 0.03 | 6.38 | 2.73 | –
244 to 246 °C | 80 ± 10 nM | 10200 ± 120 nM | 900 ± 80 nM | 1270 ± 320 nM | CN(C)c1ccc(C=Nc2c(C#N)c3n(c2C(=O)Nc2ccc(F)cc2)CCC3)cc1 [Compound 16b, 7-Cyano-6-((4-(dimethylamino)benzylidene)amino)-N-(4-fluorophenyl)-2,3-dihydro-1H-pyrrolizine-5-carboxamide] | 15.88 | 0.12 | 1.41 | –
241 to 243 °C | 7050 ± 280 nM | 170 ± 10 nM | 21200 ± 2430 nM | 2420 ± 560 nM | Cc1ccc(C=Nc2c(C#N)c3n(c2C(=O)Nc2ccc(F)cc2)CCC3)cc1 [Compound 16d, 7-Cyano-N-(4-fluorophenyl)-6-((4-methylbenzylidene)amino)-2,3-dihydro-1H-pyrrolizine-5-carboxamide] | 0.34 | 14.24 | 0.11 | –
226 to 228 °C | 40500 ± 10600 nM | 190 ± 20 nM | 13900 ± 1920 nM | 1270 ± 480 nM | COc1ccc(NC(=O)c2c(N=Cc3ccc(N(C)C)cc3)c(C#N)c3n2CCC3)cc1 [Compound 16a, 7-Cyano-6-((4-(dimethylamino)benzylidene)amino)-N-(4-methoxyphenyl)-2,3-dihydro-1H-pyrrolizine-5-carboxamide] | 0.03 | 6.68 | 0.09 | Selectivity index range toward the three cancer cell lines [5]: 0.03–6.68; IC50 [5]: 190 to 40500 nM
231 to 233 °C | 30 ± 10 nM | 2270 ± 610 nM | 140 ± 20 nM | 24100 ± 1310 nM | COc1ccc(NC(=O)c2c(N=Cc3ccc(C)cc3)c(C#N)c3n2CCC3)cc1 [Compound 16c, 7-Cyano-N-(4-methoxyphenyl)-6-((4-methylbenzylidene)amino)-2,3-dihydro-1H-pyrrolizine-5-carboxamide] | – | 10.60 | – | –
262 to 264 °C | 27000 ± 1670 nM | 710 ± 290 nM | 42600 ± 3470 nM | 1600 ± 120 nM | N#Cc1c(N=Cc2ccc(Cl)cc2)c(C(=O)Nc2ccc(F)cc2)n2c1CCC2 [Compound 16h, 6-((4-Chlorobenzylidene)amino)-7-cyano-N-(4-fluorophenyl)-2,3-dihydro-1H-pyrrolizine-5-carboxamide] | 0.06 | 2.25 | 0.04 | –
241 to 243 °C | 10 nM | 370 ± 180 nM | 560 ± 10 nM | 5780 ± 630 nM | COc1ccc(NC(=O)c2c(N=Cc3ccc(Cl)cc3)c(C#N)c3n2CCC3)cc1 [Compound 16g, 6-((4-Chlorobenzylidene)amino)-7-cyano-N-(4-methoxyphenyl)-2,3-dihydro-1H-pyrrolizine-5-carboxamide] | – | 15.62 | 10.32 | Cell cycle perturbation (MCF7 cells [10]): cell cycle arrest at the G2/M phase; Selectivity index range toward the three cancer cell lines [5]: 10.32–578.00

Continued, compound first:

Compound | melting point | IC50 (MCF7 cells [1]) | IC50 (HT29 cells [2]) | IC50 (A2780 cells [3]) | IC50 at 72 h [4] | Selectivity Index MCF7 (MCF7 cells [1]) | Selectivity Index HT29 (HT29 cells [2]) | Selectivity Index A2780 (A2780 cells [3]) | further results
CC1(C)Cc2c(-c3ccccc3)c(-c3ccc(Cl)cc3)c(CC(=O)O)n2C1 [Licofelone] | – | – | – | – | – | – | – | – | IC50 (COX-2; [11]): 4700 nM; IC50 (MCF7): 5500 nM
O=C(c1ccccc1)c1ccc2n1CCC2C(=O)O (stereo not shown) [Ketorolac, ketorolac] | – | – | – | – | – | – | – | – | IC50 (A549 cells): ~13000 nM; IC50 (COX-2; [11]): 140 nM
CS(=O)(=O)CCNCc1ccc(-c2ccc3ncnc(Nc4ccc(OCc5cccc(F)c5)c(Cl)c4)c3c2)o1 [Lapatinib, lapatinib, reference compound] | – | 5980 ± 1310 nM | 13200 ± 1820 nM | 9860 ± 1720 nM | 14900 ± 2450 nM | 2.49 | 1.13 | 1.51 | IC50 [5]: 5980 to 13200 nM
Cc1ccc(NC(=O)c2c(/N=C/c3ccc(Cl)cc3)c(C#N)c3n2CCC3)cc1 [Compound 10] | – | – | – | – | – | – | – | – | IC50 (MCF7 cells [6]): 330 ± 120 nM; IC50 (HT29 cells [7]): 410 ± 20 nM; IC50 [8]: 330 to 440 nM; IC50 (A2780 cells [9]): 440 ± 10 nM
COC1c2c(-c3ccccc3)c(-c3ccc(Cl)cc3)c(C)n2CC1(C)C (stereo not shown) [Compound 8] | – | – | – | – | – | – | – | – | IC50 (COX-1): 500 nM; IC50 (5-LOX): 60 nM; IC50 (COX-2; [11]): 7500 nM
CS(=O)(=O)c1ccc(C2=C(c3ccccc3)C(=O)OC2)cc1 [Rofecoxib, rofecoxib] | – | – | – | – | – | – | – | – | IC50 (COX-2; read-out: IC50 against COX-2): 530 nM
Cc1ccc(-c2c(-c3ccc(S(C)(=O)=O)cc3)cn3c2CCC3)cc1 [Compound 9] | – | – | – | – | – | – | – | – | IC50 (COX-1): 700 nM; IC50 (5-LOX): 10000 nM; IC50 (COX-2; [11]): 5 nM
